Reference: patent US12458702B2 (NATIONAL TAIWAN UNIVERSITY, priority 2022, dated 2025)
“Also recorded” adds a separate entry of the source. Where two headings read alike, the source gives them in different places.

Key:
[1] = tested on: CRC cell lines HCT-116 and HT-29; test: Cytotoxicity against CRC cell lines, summary over both lines (SRB assay); assay type: cell-based, human; conditions: HCT-116 and HT-29, with or without GSH
Experimental: (§1) The fraction of cell survival was calculated as follows. Survival fraction=(OD treated−blank)/(OD control−blank). […] Each experiment was repeated three times.

HT-29 = test: Cytotoxicity by SRB assay in HT-29 cells
Experimental: Cancer cell lines were obtained from ATCC unless otherwise noted. HT-29 and HCT-116 cells were cultured in Dulbecco's Modified Eagle Medium (DMEM, Thermo Fisher Scientific) with 10% fetal bovine serum (FBS, Thermo Fisher Scientific) and 1% antibiotic-antimycotic (Thermo Fisher Scientific).
Briefly, CRC cells were seeded at a density of 5×10^3 cells/well in 96-well microtiter plates (100 μL/well), separated into two groups with or without GSH. After incubation for 24 hours, the culture medium was replaced by fresh medium (100 μL). […] After incubation, 10% cold trichloroacetic acid was gently added to each well and incubated at 4° C. for 1 h. The medium was removed, carefully washed with water, and dried at room temperature. […] The optical density (O.D.) was measured at 510 nm with Multi-Mode Microplate Reader (SpectraMax Paradigm, Beckman Coulter, U.S.). The fraction of cell survival was calculated as follows. Survival fraction=(OD treated−blank)/(OD control−blank). […] Each experiment was repeated three times.

pH stability analysis = assay type: physicochemical
HCT-116 = test: Cytotoxicity by SRB assay in HCT-116 cells; assay type: cell-based, human
Experimental: as §1

[2] = Stability and drug release in GSH (RP-HPLC); assay type: in vitro ADME
Experimental: […] After incubation for the indicated time, samples were centrifuged to collect the clear supernatant and stored at −30° C. until analysis. RP-HPLC injections were carried out at the specified conditions, and the area of peak was integrated for further calculation.

[3] = Human plasma stability (RP-HPLC); assay type: in vitro ADME; conditions: 95% human plasma, 37° C.
Experimental: To access human plasma stability, synthesized conjugates were prepared in 95% human plasma. […] The mixture was centrifuged at 13,000 rpm for 5 min. […] For compounds 30 and 31, they were dissolved in DMA and added GSH (11.2 mM or 11.2 μM) solution which was prepared in sodium acetate buffer (10 mM, pH 5.0) in the ratio of 50/40 (v/v, drug in DMA/GSH solution) for final GSH of 5 mM or 5 μM in pH 7.0, respectively. After incubation for the indicated time, samples were centrifuged to collect the clear supernatant and stored at −30° C. until analysis. RP-HPLC injections were carried out at the specified conditions, and the area of peak was integrated for further calculation.

[4] = tested on: orthotopic CRC mice model; test: Orthotopic AOM/DSS-induced CRC mice model, tumor area; assay type: in vivo, BALB/c mice; conditions: SN-38 series
Experimental: Azoxymethane (AOM)-induced murine CRC model was applied to model human CRC. BALB/c mice (6 weeks of age, male) were intraperitoneally (i.p.) injected once every two weeks with AOM (10 mg/kg body weight) or the PBS vehicle. Seven days after each AOM injection, 2% dextran sulfate sodium (DSS) was given in the drinking water for four days, followed by 3 days of regular water. This cycle was repeated three times. The mice were randomly divided into eight groups (n=5), on day 60 after the first AOM treatment. […] Tumor volumes and body weights were recorded at sacrifice. The tumors were counted under a dissecting microscope, and the area covered by tumors was measured by imaging software (AxioVision LE 4.8.2.0).

[5] = Body weight changes in the CRC mice model; assay type: in vivo, BALB/c mice; conditions: during treatment in CRC mice model
Experimental: Azoxymethane (AOM)-induced murine CRC model was applied to model human CRC. BALB/c mice (6 weeks of age, male) were intraperitoneally (i.p.) injected once every two weeks with AOM (10 mg/kg body weight) or the PBS vehicle. Seven days after each AOM injection, 2% dextran sulfate sodium (DSS) was given in the drinking water for four days, followed by 3 days of regular water. This cycle was repeated three times. The mice were randomly divided into eight groups (n=5), on day 60 after the first AOM treatment. […] Irinotecan (20 mg/kg), compound 31 (20 mg/kg), and irinotecan+compound 17 (20 mg/kg of irinotecan and 14 mg/kg of compound 17) were injected i.p. q.o.d for two weeks. […] Tumor volumes and body weights were recorded at sacrifice. The tumors were counted under a dissecting microscope, and the area covered by tumors was measured by imaging software (AxioVision LE 4.8.2.0).

Row | SMILES | cytotoxicity against CRC cell lines, in words [1] | IC50 (HT-29; Homo sapiens, HT-29, 48 h, read-out: IC50 HT-29 w/o GSH) [nM] | pH stability, in words (pH stability analysis; pH 4-5) | pH stability, in words (pH stability analysis; pH >7) | IC50 (HCT-116; Homo sapiens, HCT-116, 48 h, w/o GSH, read-out: IC50 HCT-116 w/o GSH) [nM] | release of 5-FU, in words ([2]; 5 mM GSH, after 48 h) | half-life [3] [h] | IC50 (HT-29; read-out: IC50 HT-29 5 mM GSH, 48 h, prepared in DMA, 5 mM GSH) [nM] | IC50 (HT-29; read-out: IC50 HT-29 w/o GSH, 48 h, prepared in DMA, w/o GSH) [nM] | reduction of tumor volume ([4]; 20 mg/kg i.p. once every two days for two weeks) [%] | anti-tumor efficacy (tumor area), in words ([4]; i.p. once every two days for two weeks, 20 mg/kg, irinotecan 20 mg/kg + compound 17 14 mg/kg) | body weight change, in words [5] | IC50 (HCT-116; 72 h, prepared in DMA, w/o GSH, read-out: IC50 HCT-116 w/o GSH) [nM] | IC50 (HCT-116; read-out: IC50 HCT-116 5 mM GSH, 72 h, prepared in DMA, 5 mM GSH) [nM] | degraded after 48 h ([2]; 0 and 5 μM GSH, 48 h) [%] | degraded to SN-38 after 48 h ([2]; 5 mM GSH, 48 h) | half-life in human plasma [3] [h]
1 | O=C(CCc1cn(CCOCCOCCOc2cc(O)c(C(=O)CCc3ccc(O)cc3)c(O)c2)nn1)OCn1cc(F)c(=O)[nH]c1=O [Compound 9] | poorly cytotoxic | 85000 ± 9100 | stable | prone to fully degrade | > 100000 | Little 5-FU was released | 3.6 |  |  |  |  |  |  |  |  |  | 
2 | CCc1c2c(nc3ccc(OC(=O)OCCSSCCOCCOCCOc4ccc(O)c(C(=O)CCc5ccc(O)cc5)c4O)cc13)-c1cc3c(c(=O)n1C2)COC(=O)[C@]3(O)CC [Compound 31, (S)-4,11-diethyl-4-hydroxy-3,14-dioxo-3,4,12,14-tetrahydro-1H-pyrano[3′,4′:6,7]indolizino[1,2-b]quinolin-9-yl(2-((2-(2-(2-(2,4-dihydroxy-3-(3-(4-hydroxyphenyl)propanoyl)phenoxy)ethoxy)eyhoxy)ethyl)disulfanyl)ethyl) carbonate] | less or similar cytotoxicity |  |  |  |  |  |  | 11.4 ± 1.03 | 16.3 ± 1.31 | 70 | better anti-tumor efficacy than irinotecan | did not decrease the body weight; also recorded: no significant change in the body weight | 2.87 ± 0.19 | 2.59 ± 0.12 | 10 | over 90% | 0.833
